Assay results: ChEMBL document CHEMBL1133700, “Chiral nonsteroidal affinity ligands for the androgen receptor. 1. Bicalutamide analogues bearing electrophilic groups in the B aromatic ring” (J Med Chem, 2000)

Biological target: T1, Androgen receptor (Rattus norvegicus, UniProt P15207)
T1 sequence (P15207 whole entry): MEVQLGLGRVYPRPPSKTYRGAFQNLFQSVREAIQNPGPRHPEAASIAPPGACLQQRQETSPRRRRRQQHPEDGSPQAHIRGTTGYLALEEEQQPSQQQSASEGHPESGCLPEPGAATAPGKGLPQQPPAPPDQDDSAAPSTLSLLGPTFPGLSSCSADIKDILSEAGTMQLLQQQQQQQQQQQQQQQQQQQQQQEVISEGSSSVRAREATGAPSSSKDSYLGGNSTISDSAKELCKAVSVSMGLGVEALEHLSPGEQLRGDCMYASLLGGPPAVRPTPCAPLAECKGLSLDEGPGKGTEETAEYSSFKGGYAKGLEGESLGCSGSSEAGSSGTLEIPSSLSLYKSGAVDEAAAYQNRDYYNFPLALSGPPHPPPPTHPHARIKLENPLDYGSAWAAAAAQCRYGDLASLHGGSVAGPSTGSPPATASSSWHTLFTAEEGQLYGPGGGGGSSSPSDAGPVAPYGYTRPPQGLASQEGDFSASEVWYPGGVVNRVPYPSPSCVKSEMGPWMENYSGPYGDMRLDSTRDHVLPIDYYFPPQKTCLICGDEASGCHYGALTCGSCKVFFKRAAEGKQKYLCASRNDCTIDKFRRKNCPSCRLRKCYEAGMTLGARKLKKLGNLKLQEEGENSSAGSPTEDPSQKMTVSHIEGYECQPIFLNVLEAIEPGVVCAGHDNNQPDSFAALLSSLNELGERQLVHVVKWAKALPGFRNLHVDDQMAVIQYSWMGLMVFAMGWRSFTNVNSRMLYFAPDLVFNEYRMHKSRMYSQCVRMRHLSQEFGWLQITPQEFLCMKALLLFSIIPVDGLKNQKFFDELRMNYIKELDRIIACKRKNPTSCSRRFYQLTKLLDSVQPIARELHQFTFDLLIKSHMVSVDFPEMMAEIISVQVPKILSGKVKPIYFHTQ
Test: Binding Affinity towards Rat Androgen Receptor was determined using [3H]- mibolerone as radioligand.

| SMILES | Ki [nM] |
| --- | --- |
| C[C@](O)(CS(=O)(=O)c1ccc(N=C=S)cc1)C(=O)Nc1ccc(C#N)c(C(F)(F)F)c1 | 41 |
| C[C@](O)(CS(=O)(=O)c1cccc(NC(=O)CCl)c1)C(=O)Nc1ccc(C#N)c(C(F)(F)F)c1 | 130 |
| C[C@](O)(CSc1cccc(NC(=O)CCl)c1)C(=O)Nc1ccc(C#N)c(C(F)(F)F)c1 | > 1000 |
| C[C@](O)(CSc1cccc(NC(=O)CBr)c1)C(=O)Nc1ccc(C#N)c(C(F)(F)F)c1 | > 1000 |
